Reference: patent US12660819B2, “Herbicidal derivatives” (SYNGENTA CROP PROTECTION AG, priority 2020, dated 2026)

Key:
Format in all cases: in vivo
[1] = test system: Echinochloa crus-galli (ECHCG); assay: Pre-emergence Test (glasshouse, percentage damage to the plant); conditions: 1000 g/ha unless otherwise stated; for percentage damage to the plant, ECHCG: five-point scale; for percentage damage to the plant, ECHCG (five-point scale): Echinochloa crus-galli
[2] = test system: Amaranthus retoflexus (AMARE); assay: as above; conditions: 1000 g/ha unless otherwise stated; for percentage damage to the plant, AMARE: five-point scale; for percentage damage to the plant, AMARE (five-point scale): Amaranthus retoflexus
Setaria faberi (SETFA) [3] = assay: as above; conditions: 1000 g/ha unless otherwise stated; for percentage damage to the plant, SETFA: five-point scale; for percentage damage to the plant, SETFA (five-point scale): Setaria faberi
Zea mays (ZEAMX) [4] = assay: as above; conditions: 1000 g/ha unless otherwise stated; for percentage damage to the plant, ZEAMX: five-point scale; for percentage damage to the plant, ZEAMX (five-point scale): Zea mays
[5] = test system: Ipomoea hederacea (IPOHE); assay: as above; conditions: 1000 g/ha unless otherwise stated; for percentage damage to the plant, IPOHE: five-point scale; for percentage damage to the plant, IPOHE (five-point scale): Ipomoea hederacea
[6] = test system: Abutilon theophrasti (ABUTH); assay: as above; conditions: 1000 g/ha unless otherwise stated; for percentage damage to the plant, ABUTH: five-point scale; for percentage damage to the plant, ABUTH (five-point scale): Abutilon theophrasti
[7] = test system: Echinochloa crus-galli (ECHCG); assay: Post-emergence Test (glasshouse, percentage damage to the plant); conditions: post-emergence spray, 1000 g/ha unless otherwise stated, evaluated after 13 days
In short: (§1)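 Spray treatment of sown glasshouse pots at 1000 g/ha (default rate), vehicle acetone/water 50:50 plus 0.5% Tween 20. Read-out: percentage damage after 13 days, converted to a score where 5 denotes 81-100% and 1 denotes 0-20%.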

[8] = test system: Amaranthus retoflexus (AMARE); assay: as above; conditions: 1000 g/ha unless otherwise stated, evaluated after 13 days; for Post-emergence Test AMARE, percentage damage to the plant (five-point scale): post-emergence spray; for AMARE, percentage damage caused to the plant (five-point scale): post-emergence
In short: as §1

[9] = test system: Abutilon theophrasti (ABUTH); assay: as above; conditions: 1000 g/ha unless otherwise stated, evaluated after 13 days; for Post-emergence Test ABUTH, percentage damage to the plant (five-point scale): post-emergence spray; for ABUTH, percentage damage caused to the plant (five-point scale): post-emergence
In short: as §1

Zea mays (ZEAMX) [10] = assay: as above; conditions: 1000 g/ha unless otherwise stated, evaluated after 13 days; for Post-emergence Test ZEAMX, percentage damage to the plant (five-point scale): post-emergence spray; for ZEAMX, percentage damage caused to the plant (five-point scale): post-emergence
In short: as §1

Setaria faberi (SETFA) [11] = assay: as above; conditions: 1000 g/ha unless otherwise stated, evaluated after 13 days; for Post-emergence Test SETFA, percentage damage to the plant (five-point scale): post-emergence spray; for SETFA, percentage damage caused to the plant (five-point scale): post-emergence
In short: as §1

[12] = test system: Ipomoea hederacea (IPOHE); assay: as above; conditions: 1000 g/ha unless otherwise stated, evaluated after 13 days; for Post-emergence Test IPOHE, percentage damage to the plant (five-point scale): post-emergence spray; for IPOHE, percentage damage caused to the plant (five-point scale): post-emergence
In short: as §1

CCOC(=O)c1c(-c2ccc(Br)c(F)c2)n(CC)c(C)c(-c2ccc(Cl)cc2)c1=O [Compound 139, ethyl 2-(4-bromo-3-fluoro-phenyl)-5-(4-chlorophenyl)-1-ethyl-6-methyl-4-oxo-pyridine-3-carboxylate]
percentage damage to the plant, ECHCG [1]: 0 | percentage damage to the plant, AMARE [2]: 0 | percentage damage to the plant, SETFA (Setaria faberi (SETFA) [3]): 0 | percentage damage to the plant, ZEAMX (Zea mays (ZEAMX) [4]): 0 | percentage damage to the plant, IPOHE [5]: 0 | percentage damage to the plant, ABUTH [6]: 0 | Post-emergence Test ECHCG, percentage damage to the plant (five-point scale) [7]: 2 (2=21-40%) | Post-emergence Test AMARE, percentage damage to the plant (five-point scale) [8]: 3 (3=41-60%) | Post-emergence Test ABUTH, percentage damage to the plant (five-point scale) [9]: 4 (4=61-80%) | Post-emergence Test ZEAMX, percentage damage to the plant (five-point scale) (Zea mays (ZEAMX) [10]): 2 (2=21-40%) | Post-emergence Test SETFA, percentage damage to the plant (five-point scale) (Setaria faberi (SETFA) [11]): 3 (3=41-60%) | Post-emergence Test IPOHE, percentage damage to the plant (five-point scale) [12]: 1 (1=0-20%)

CCn1c(-c2ccc(Cl)c(Cl)c2)c(C(=O)OC)c(=O)c(-c2ccc(Cl)cc2)c1C(F)F [Compound 205, methyl 5-(4-chlorophenyl)-2-(3,4-dichlorophenyl)-6-(difluoromethyl)-1-ethyl-4-oxo-pyridine-3-carboxylate]
percentage damage to the plant, ECHCG (five-point scale) [1]: 0 | percentage damage to the plant, AMARE (five-point scale) [2]: 0 | percentage damage to the plant, SETFA (five-point scale) (Setaria faberi (SETFA) [3]): 0 | percentage damage to the plant, ZEAMX (five-point scale) (Zea mays (ZEAMX) [4]): 0 | percentage damage to the plant, IPOHE (five-point scale) [5]: 0 | percentage damage to the plant, ABUTH (five-point scale) [6]: 0 | AMARE, percentage damage caused to the plant (five-point scale) [8]: 1 (1=0-20%) | ABUTH, percentage damage caused to the plant (five-point scale) [9]: 0 | ZEAMX, percentage damage caused to the plant (five-point scale) (Zea mays (ZEAMX) [10]): 0 | SETFA, percentage damage caused to the plant (five-point scale) (Setaria faberi (SETFA) [11]): 0 | IPOHE, percentage damage caused to the plant (five-point scale) [12]: 1 (1=0-20%)

CCn1c(C)c(-c2ccc(Cl)c(F)c2)c(=O)c(C(=O)O)c1-c1ccc(Cl)cc1 [Compound 201, 5-(4-chloro-3-fluoro-phenyl)-2-(4-chlorophenyl)-1-ethyl-6-methyl-4-oxo-pyridine-3-carboxylic acid]
percentage damage to the plant, ECHCG (five-point scale) [1]: 3 (3=41-60%) | percentage damage to the plant, AMARE (five-point scale) [2]: 1 (1=0-20%) | percentage damage to the plant, SETFA (five-point scale) (Setaria faberi (SETFA) [3]): 3 (3=41-60%) | percentage damage to the plant, ZEAMX (five-point scale) (Zea mays (ZEAMX) [4]): 0 | percentage damage to the plant, IPOHE (five-point scale) [5]: 0 | percentage damage to the plant, ABUTH (five-point scale) [6]: 2 (2=21-40%) | AMARE, percentage damage caused to the plant (five-point scale) [8]: 2 (2=21-40%) | ABUTH, percentage damage caused to the plant (five-point scale) [9]: 4 (4=61-80%) | ZEAMX, percentage damage caused to the plant (five-point scale) (Zea mays (ZEAMX) [10]): 2 (2=21-40%) | SETFA, percentage damage caused to the plant (five-point scale) (Setaria faberi (SETFA) [11]): 3 (3=41-60%) | IPOHE, percentage damage caused to the plant (five-point scale) [12]: 1 (1=0-20%)

CCn1c(C)c(-c2ccc(F)cc2OC)c(=O)c(C(=O)OC)c1-c1ccc(Cl)c(Cl)c1 [Compound 164, methyl 2-(3,4-dichlorophenyl)-1-ethyl-5-(4-fluoro-2-methoxy-phenyl)-6-methyl-4-oxo-pyridine-3-carboxylate]
percentage damage to the plant, ECHCG [1]: 0 | percentage damage to the plant, AMARE [2]: 0 | percentage damage to the plant, SETFA (Setaria faberi (SETFA) [3]): 0 | percentage damage to the plant, ZEAMX (Zea mays (ZEAMX) [4]): 0 | percentage damage to the plant, IPOHE [5]: 0 | Post-emergence Test ECHCG, percentage damage to the plant (five-point scale) [7]: 0 | Post-emergence Test AMARE, percentage damage to the plant (five-point scale) [8]: 1 (1=0-20%) | Post-emergence Test ABUTH, percentage damage to the plant (five-point scale) [9]: 1 (1=0-20%) | Post-emergence Test ZEAMX, percentage damage to the plant (five-point scale) (Zea mays (ZEAMX) [10]): 1 (1=0-20%) | Post-emergence Test SETFA, percentage damage to the plant (five-point scale) (Setaria faberi (SETFA) [11]): 1 (1=0-20%) | Post-emergence Test IPOHE, percentage damage to the plant (five-point scale) [12]: 1 (1=0-20%)

CCn1c(-c2ccc(Cl)c(Cl)c2)c(C(=O)O)c(=O)c(-c2ccc(Cl)cc2)c1C(F)F [Compound 204, 5-(4-chlorophenyl)-2-(3,4-dichlorophenyl)-6-(difluoromethyl)-1-ethyl-4-oxo-pyridine-3-carboxylic acid]
percentage damage to the plant, ECHCG (five-point scale) [1]: 0 | percentage damage to the plant, AMARE (five-point scale) [2]: 5 (5=81-100%) | percentage damage to the plant, SETFA (five-point scale) (Setaria faberi (SETFA) [3]): 0 | percentage damage to the plant, ZEAMX (five-point scale) (Zea mays (ZEAMX) [4]): 0 | percentage damage to the plant, IPOHE (five-point scale) [5]: 0 | percentage damage to the plant, ABUTH (five-point scale) [6]: 2 (2=21-40%) | AMARE, percentage damage caused to the plant (five-point scale) [8]: 5 (5=81-100%) | ABUTH, percentage damage caused to the plant (five-point scale) [9]: 5 (5=81-100%) | ZEAMX, percentage damage caused to the plant (five-point scale) (Zea mays (ZEAMX) [10]): 1 (1=0-20%) | SETFA, percentage damage caused to the plant (five-point scale) (Setaria faberi (SETFA) [11]): 3 (3=41-60%) | IPOHE, percentage damage caused to the plant (five-point scale) [12]: 2 (2=21-40%)

CCn1c(CCOC)c(-c2ccc(Cl)cc2)c(=O)c(C(=O)OC)c1-c1ccc(Cl)c(Cl)c1 [Compound 202, methyl 5-(4-chlorophenyl)-2-(3,4-dichlorophenyl)-1-ethyl-6-(2-methoxyethyl)-4-oxo-pyridine-3-carboxylate]
percentage damage to the plant, ECHCG (five-point scale) [1]: 0 | percentage damage to the plant, AMARE (five-point scale) [2]: 0 | percentage damage to the plant, SETFA (five-point scale) (Setaria faberi (SETFA) [3]): 0 | percentage damage to the plant, ZEAMX (five-point scale) (Zea mays (ZEAMX) [4]): 0 | percentage damage to the plant, IPOHE (five-point scale) [5]: 0 | percentage damage to the plant, ABUTH (five-point scale) [6]: 0 | AMARE, percentage damage caused to the plant (five-point scale) [8]: 0 | ABUTH, percentage damage caused to the plant (five-point scale) [9]: 0 | ZEAMX, percentage damage caused to the plant (five-point scale) (Zea mays (ZEAMX) [10]): 1 (1=0-20%) | SETFA, percentage damage caused to the plant (five-point scale) (Setaria faberi (SETFA) [11]): 0 | IPOHE, percentage damage caused to the plant (five-point scale) [12]: 1 (1=0-20%)

CCn1c(C)c(-c2ccc(F)cc2F)c(=O)c(C(=O)O)c1-c1ccc(Cl)cc1 [Compound 192, 2-(4-chlorophenyl)-5-(2,4-difluorophenyl)-1-ethyl-6-methyl-4-oxo-pyridine-3-carboxylic acid]
percentage damage to the plant, ECHCG [1]: 2 (2=21-40%) | percentage damage to the plant, AMARE [2]: 1 (1=0-20%) | percentage damage to the plant, SETFA (Setaria faberi (SETFA) [3]): 2 (2=21-40%) | percentage damage to the plant, ZEAMX (Zea mays (ZEAMX) [4]): 0 | percentage damage to the plant, IPOHE [5]: 1 (1=0-20%) | percentage damage to the plant, ABUTH [6]: 2 (2=21-40%) | Post-emergence Test AMARE, percentage damage to the plant (five-point scale) [8]: 2 (2=21-40%) | Post-emergence Test ABUTH, percentage damage to the plant (five-point scale) [9]: 4 (4=61-80%) | Post-emergence Test ZEAMX, percentage damage to the plant (five-point scale) (Zea mays (ZEAMX) [10]): 2 (2=21-40%) | Post-emergence Test SETFA, percentage damage to the plant (five-point scale) (Setaria faberi (SETFA) [11]): 4 (4=61-80%) | Post-emergence Test IPOHE, percentage damage to the plant (five-point scale) [12]: 2 (2=21-40%)

CCn1c(C)c(-c2ccc(Cl)cc2)c(=O)c(C(=O)O)c1-c1ccc(Br)cc1F [Compound 133, 2-(4-bromo-2-fluoro-phenyl)-5-(4-chlorophenyl)-1-ethyl-6-methyl-4-oxo-pyridine-3-carboxylic acid]
percentage damage to the plant, ECHCG [1]: 4 (4=61-80%) | percentage damage to the plant, AMARE [2]: 2 (2=21-40%) | percentage damage to the plant, SETFA (Setaria faberi (SETFA) [3]): 5 (5=81-100%) | percentage damage to the plant, ZEAMX (Zea mays (ZEAMX) [4]): 2 (2=21-40%) | percentage damage to the plant, IPOHE [5]: 2 (2=21-40%) | percentage damage to the plant, ABUTH [6]: 3 (3=41-60%) | Post-emergence Test AMARE, percentage damage to the plant (five-point scale) [8]: 4 (4=61-80%) | Post-emergence Test ABUTH, percentage damage to the plant (five-point scale) [9]: 2 (2=21-40%) | Post-emergence Test ZEAMX, percentage damage to the plant (five-point scale) (Zea mays (ZEAMX) [10]): 1 (1=0-20%) | Post-emergence Test SETFA, percentage damage to the plant (five-point scale) (Setaria faberi (SETFA) [11]): 1 (1=0-20%) | Post-emergence Test IPOHE, percentage damage to the plant (five-point scale) [12]: 3 (3=41-60%)
